Here are results for twelve compounds from US10787462B2, “Heterocyclic compound” (TAKEDA PHARMACEUTICAL COMPANY LIMITED, priority 2015, dated 2020).

The target of this experiment is T1, human RIPK1 (1-375) (Homo sapiens, UniProt Q13546).
T1 construct: human RIPK1 (1-375) gene; GST; made in house; host or cells: Sf-9 insect cells
T1 sequence (Q13546 1-375): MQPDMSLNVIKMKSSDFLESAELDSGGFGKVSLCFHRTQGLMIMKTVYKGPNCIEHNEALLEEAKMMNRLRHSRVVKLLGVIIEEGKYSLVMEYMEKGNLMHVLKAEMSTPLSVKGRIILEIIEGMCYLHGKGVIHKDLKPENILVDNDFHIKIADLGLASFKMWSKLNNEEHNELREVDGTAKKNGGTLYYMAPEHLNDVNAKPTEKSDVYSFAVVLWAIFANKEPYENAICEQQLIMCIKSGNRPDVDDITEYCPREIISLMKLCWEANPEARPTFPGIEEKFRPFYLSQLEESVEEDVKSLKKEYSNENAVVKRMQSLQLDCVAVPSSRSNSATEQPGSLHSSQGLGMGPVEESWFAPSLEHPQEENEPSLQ
The experiment in a line: Human RIPK1 enzyme inhibitory effect (ADP-Glo Kinase Assay). It is filed as biochemical. To be noted: read-out: human RIPK1 enzyme inhibitory effect at 10 μM (% inhibition), 10 μM test compound; well without enzyme = 100% inhibition. The method, then: Experimental Example 1: Human RIPK1 Enzyme Inhibitory Effect
Enzyme was prepared by transducing human RIPK1 (1-375) gene to Sf-9 insect cells, and purifying using GST affinity column, and enzyme activity evaluation was performed using the enzyme. The enzyme was used after preservation at −70° C. The RIPK1 enzyme inhibitory activity of the test compound was measured using ADP-Glo™ Kinase Assay (Promega) according the following experiment methods. The test compound diluted with assay buffer (25 mM HEPES (pH 7.5), 10 mM MgCl2, 0.01% Tween-20, 2 mM DTT) was added to 384 well plate by each 2 μL. Next, RIPK1 enzyme solution diluted with the assay buffer was added thereto by each 2 μL, and the mixture was incubated at room temperature for 20 min. After the incubation, 0.6 mM ATP solution was added thereto by each 2 μL to initiate an enzyme reaction. The mixture was incubated at room temperature for 120 min, and ADP-Glo solution prepared according to Promega protocol was added to the 384 well plate by each 3 μL, and the reaction was performed at room temperature for 40 min. Then, Kinase-Detection solution was added to the 384 well plate by each 6 μL, and the reaction was performed at room temperature for 40 min. After the reaction, the luminescence intensity was measured by plate reader Envision (PerkinElmer).

The structures appear in SMILES notation.

Consider `CN1C(=O)[C@@H](N2CCc3cn(Cc4ccccc4)nc3C2=O)COc2ccccc21` [Example 1, (3S)-3-(2-benzyl-7-oxo-2,4,5,7-tetrahydro-6H-pyrazolo[3,4-c]pyridin-6-yl)-5-methyl-2,3-dihydro-1,5-benzoxazepin-4(5H)-one], for which the inhibition at 10 µM turned out to be 100%.

On to `CN1C(=O)[C@@H](N2CCCn3nc(Cc4ccccc4)nc3C2=O)COc2ccccc21` [Example 2, (3S)-3-(2-benzyl-9-oxo-6,7-dihydro-5H-[1,2,4]triazolo[1,5-a][1,4]diazepin-8(9H)-yl)-5-methyl-2,3-dihydro-1,5-benzoxazepin-4(5H)-one], for which the inhibition at 10 µM was 91%.

Turning to `O=C1Nc2ccccc2CCC1N1CCc2cn(Cc3ccccc3)nc2C1=O` (stereo not drawn) [Example 3, 3-(2-benzyl-7-oxo-2,4,5,7-tetrahydro-6H-pyrazolo[3,4-c]pyridin-6-yl)-1,3,4,5-tetrahydro-2H-1-benzazepin-2-one], the inhibition at 10 µM came to 97%.

Consider `O=C1Nc2ccccc2CCC1N1Cc2cn(Cc3ccccc3)nc2C1=O` (stereo not drawn) [Example 4, 3-(2-benzyl-6-oxo-2,6-dihydropyrrolo[3,4-c]pyrazol-5(4H)-yl)-1,3,4,5-tetrahydro-2H-1-benzazepin-2-one], for which the inhibition at 10 µM is 80%.

As for `O=C1Nc2ccccc2CCC1n1ccc2cn(Cc3ccccc3)nc2c1=O` (stereo not drawn) [Example 5, 3-(2-benzyl-7-oxo-2,7-dihydro-6H-pyrazolo[3,4-c]pyridin-6-yl)-1,3,4,5-tetrahydro-2H-1-benzazepin-2-one], the inhibition at 10 µM came to 88%.

`CN1C(=O)C(n2ccc3cn(Cc4ccccc4)nc3c2=O)CCc2ccccc21` (stereo not drawn) [Example 6, 3-(2-benzyl-7-oxo-2,7-dihydro-6H-pyrazolo[3,4-c]pyridin-6-yl)-1-methyl-1,3,4,5-tetrahydro-2H-1-benzazepin-2-one]: the inhibition at 10 µM came to 96%.

Turning to `CN1C(=O)[C@@H](N2CCn3cc(Cc4ccccc4)nc3C2=O)COc2ccccc21` [Example 7, (3S)-3-(2-benzyl-8-oxo-5,6-dihydroimidazo[1,2-a]pyrazin-7(8H)-yl)-5-methyl-2,3-dihydro-1,5-benzoxazepin-4(5H)-one], the inhibition at 10 µM was 91%.

`CN1C(=O)[C@@H](N2CCn3nc(Cc4ccccc4)nc3C2=O)COc2ccccc21` [Example 8, (3S)-3-(2-benzyl-8-oxo-5,6-dihydro[1,2,4]triazolo[1,5-a]pyrazin-7(8H)-yl)-5-methyl-2,3-dihydro-1,5-benzoxazepin-4(5H)-one]: the inhibition at 10 µM was 98%.

For the compound `CN1C(=O)[C@@H](N2CCc3cn(Cc4ccccc4F)nc3C2=O)COc2ccccc21` [Example 9, (3S)-3-(2-(2-fluorobenzyl)-7-oxo-2,4,5,7-tetrahydro-6H-pyrazolo[3,4-c]pyridin-6-yl)-5-methyl-2,3-dihydro-1,5-benzoxazepin-4(5H)-one], the inhibition at 10 µM amounted to 100%.

In the case of `CN1C(=O)[C@@H](N2CCc3c(nn(Cc4ccccc4)c3Br)C2=O)COc2ccccc21` [Example 10, (3S)-3-(2-benzyl-3-bromo-7-oxo-2,4,5,7-tetrahydro-6H-pyrazolo[3,4-c]pyridin-6-yl)-5-methyl-2,3-dihydro-1,5-benzoxazepin-4(5H)-one], the inhibition at 10 µM was found to be 98%.

Regarding `Cc1c2c(nn1Cc1ccccc1)C(=O)N([C@H]1COc3ccccc3N(C)C1=O)CC2` [Example 11, (3S)-3-(2-benzyl-3-methyl-7-oxo-2,4,5,7-tetrahydro-6H-pyrazolo[3,4-c]pyridin-6-yl)-5-methyl-2,3-dihydro-1,5-benzoxazepin-4(5H)-one], the inhibition at 10 µM worked out at 100%.

Turning to `CN1C(=O)[C@@H](N2CCc3c(nn(Cc4ccccc4)c3C#N)C2=O)COc2ccccc21` [Example 12, 2-benzyl-6-((3S)-5-methyl-4-oxo-2,3,4,5-tetrahydro-1,5-benzoxazepin-3-yl)-7-oxo-4,5,6,7-tetrahydro-2H-pyrazolo[3,4-c]pyridine-3-carbonitrile], the inhibition at 10 µM was 100%.
